According to BindingDB's records for PubMed 1652050 (Seattle Veterans Affairs Medical Center, 1991):
Values joined by “and” are separate entries in the source; they are usually repeats but may differ in a detail not shown here. Identical values can stand only once.

Target: 5-hydroxytryptamine receptor 1D (Homo sapiens, UniProt P28221)
Sequence (P28221 whole entry): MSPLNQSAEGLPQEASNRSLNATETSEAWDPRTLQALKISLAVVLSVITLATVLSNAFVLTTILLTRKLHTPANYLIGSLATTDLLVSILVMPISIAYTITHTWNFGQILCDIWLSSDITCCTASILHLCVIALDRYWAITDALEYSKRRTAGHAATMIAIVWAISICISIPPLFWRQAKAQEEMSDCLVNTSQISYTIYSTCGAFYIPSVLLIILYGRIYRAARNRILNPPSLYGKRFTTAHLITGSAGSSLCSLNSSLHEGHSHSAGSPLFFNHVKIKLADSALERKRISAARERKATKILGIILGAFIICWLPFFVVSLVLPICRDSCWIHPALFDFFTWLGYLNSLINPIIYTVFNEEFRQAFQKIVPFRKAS

Question: With CN1C2CCC1CC(OC(=O)c1c[nH]c3ccccc13)C2 (centres undefined) as the compound, how does the Ki read?
Answer: Its Ki is over 10 µM.

Question: Which Ki does the source give for Clc1cccc(N2CCNCC2)c1 [mCPP] here?
Answer: Its Ki is 0.21 µM.

Question: For CN1CC(C(=O)N[C@]2(C)O[C@@]3(O)C4CCCN4C(=O)[C@H](Cc4ccccc4)N3C2=O)CC2c3cccc4[nH]cc(c34)CC21 (stereo partly drawn) [7-Methyl-4,6,6a,7,8,9,10,10a-octahydro-indolo[4,3-fg]quinoline-9-carboxylic acid ((2R,5S,10bS)-5-benzyl-10b-hydroxy-2-methyl-3,6-dioxo-octahydro-oxazolo[3,2-a]pyrrolo[2,1-c]pyrazin-2-yl)-amide], which Ki is on record?
Answer: Its Ki is 0.00013 µM.

Question: CSc1ccc2c(c1)C(N1CCN(C)CC1)Cc1ccccc1S2 (centres undefined) [methanesulfonic acid;1-methyl-4-(3-methylsulfanyl-5,6-dihydrobenzo[b][1]benzothiepin-5-yl)piperazine] was tested. Which Ki did it give?
Answer: Its Ki is 0.0058 µM.

Question: For O=C(CCCN1CCC2(CC1)C(=O)NCN2c1ccccc1)c1ccc(F)cc1 [8-[4-(4-fluorophenyl)-4-oxidanylidene-butyl]-1-phenyl-1,3,8-triazaspiro[4.5]decan-4-one], which Ki is on record?
Answer: Its Ki is 3.1 µM.

Question: Which Ki does the source give for CC(C)(C)NCC(O)COc1cccc2[nH]c(C#N)cc12 (centres undefined) [NSC_155346] here?
Answer: The Ki was 0.085 µM.

Question: For CN1C[C@@H](NS(=O)(=O)N(C)C)C[C@@H]2c3cccc4c3c(cn4C)C[C@H]21 [MESULERGINE], which Ki is on record?
Answer: Its Ki is 1.7 µM.

Question: CN1C[C@H](CNC(=O)OCc2ccccc2)C[C@@H]2c3cccc4c3c(cn4C)C[C@H]21 [METERGOLINE] was tested. Which Ki did it give?
Answer: The Ki was 0.00061 µM.

Question: For COC(=O)[C@@H]1[C@H]2C[C@H]3c4[nH]c5ccccc5c4CCN3C[C@@H]2CC[C@@H]1O [yohimbic acid methyl ester], which Ki is on record?
Answer: The Ki was 0.059 µM and 0.051 µM.
